According to patent US6939896B2, “Cd45 inhibitors” (AstraZeneca AB, priority 1999, dated 2005):

How the values were obtained:
CD45 [1] = target: T1, CD45 (Homo sapiens, UniProt P08575); assay: Phosphatase assay using pNPP as substrate; assay type: biochemical; conditions: pH 7.0
T1 construct: incubating the cytosolic portion of CD45 with the compounds and p-nitrophenyl phosphate (pNPP); purchased BIOMOL (Plymouth Meeting, Pa.)
T1 sequence (P08575 599-1306 limits assumed): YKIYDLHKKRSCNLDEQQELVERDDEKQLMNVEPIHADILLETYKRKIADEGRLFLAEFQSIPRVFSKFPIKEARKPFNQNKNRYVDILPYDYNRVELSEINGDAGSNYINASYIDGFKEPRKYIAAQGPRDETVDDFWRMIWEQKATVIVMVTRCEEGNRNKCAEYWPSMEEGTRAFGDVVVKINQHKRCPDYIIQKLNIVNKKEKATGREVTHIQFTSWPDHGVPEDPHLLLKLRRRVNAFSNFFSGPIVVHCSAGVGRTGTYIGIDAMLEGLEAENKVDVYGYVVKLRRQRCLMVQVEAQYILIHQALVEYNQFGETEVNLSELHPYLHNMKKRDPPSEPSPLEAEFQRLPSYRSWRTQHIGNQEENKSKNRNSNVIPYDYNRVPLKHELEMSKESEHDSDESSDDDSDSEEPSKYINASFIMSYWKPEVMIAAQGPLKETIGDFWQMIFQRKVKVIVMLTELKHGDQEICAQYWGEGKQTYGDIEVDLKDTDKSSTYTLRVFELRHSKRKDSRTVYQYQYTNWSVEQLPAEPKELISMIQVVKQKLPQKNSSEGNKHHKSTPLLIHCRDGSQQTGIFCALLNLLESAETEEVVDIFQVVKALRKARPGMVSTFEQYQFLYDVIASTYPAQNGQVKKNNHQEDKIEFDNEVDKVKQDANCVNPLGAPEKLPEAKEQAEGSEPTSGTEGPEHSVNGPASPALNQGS
Protocol: (§1) Potent inhibitors of CD45 have been discovered. Such inhibitors are useful for the treatment of various autoimmune disorders as well as for treatment of OGR. Inhibition of the phosphatase activity of CD45 by compounds of the present invention has been shown by incubating the cytosolic portion of CD45 with the compounds and p-nitrophenyl phosphate (pNPP), a phosphatase substrate. Spectrophotometric monitoring has shown that the liberation of p-nitrophenol from the substrate by CD45 is inhibited in the presence of the compounds disclosed herein. Inhibition of the phosphatase activity of CD45 by compounds of the present invention has also been shown using a p56^lck carboxy-terminal phosphorylated peptide as a substrate.
CD45 enzyme was obtained from BIOMOL (Plymouth Meeting, Pa.). Phosphatase activity was assayed in a buffer containing final concentrations of 25 mM imidazole at pH 7.0, 50 mM NaCl, 2.5 mM ethylenediaminetetraacetic acid (“EDTA”), 5 mM dithiothreitol (“DTT”) and 10 μg/mL bovine serum albumin (“BSA”) using pNPP as a substrate.
Activity was measured by following the increase in absorbance at 405 nm using a SpectraMax Plus spectrophotometric plate reader (Molecular Devices, Sunnyvale, Calif.).

CD45 [2] = target: T1, CD45; assay: Phosphatase assay using lck 10-mer as substrate; assay type: biochemical; conditions: lck carboxy-terminal peptide TEGQpYQPQP substrate, pH 7.2, 5% DMSO, read-out: Ick IC50
Protocol: as §1
Phosphatase activity was assayed in 96 well plates in a buffer containing final concentrations of 25 mM HEPES at pH 7.2, 5 mM DTT and 10 μg/mL BSA, using the lck carboxy-terminal peptide TEGQpYQPQP as the substrate (Cho, H., Krishnaraj. R., Itoh. M., Kitas, E., Bannwarth, W., Saito, H., Walsh, C. T. 1993. Substrate specificities of catalytic fragments of protein tyrosine phosphatases (HPTPb, LAR. and CD45) toward the phosphotyrosylpeptide substrates and thiophosphotyrosylated peptides as inhibitors. Protein Science 2:977-984). Compounds were tested in a range from 30 to 0.01 μM in a final concentration of 5% DMSO. Enzyme was incubated with substrate. with or without compound, at room temperature for 1.5 h. At the end of the incubation period, BIOMOL “Green Reagent” (BIOMOL, Plymouth Meeting, Pa.) was added to each well, the plates incubated at room temperature for 30 min and absorbance read at 620 nm.

[3] = tested on: Peripheral blood mononuclear cells (T cells); assay: T cell proliferation assay (anti-CD3 OKT3-activated PBMC, [3H]thymidine); assay type: cell-based; conditions: human PBMC activated with OKT3 30 ng/mL, read-out: T cell prolif. IC50
Protocol: Whole blood was obtained from healthy human blood donors. Peripheral blood mononuclear cells (“PBMC”) were isolated using Lymphoprep density-gradient centrifugation (Nycomed Amersham, Oslo, Norway), washed, counted and resuspended at 2×10^6 cells/mL in RPMI 1640 medium containing glutamine, 0.1 mg/mL gentamycin and 10% heat inactivated human serum. PBMC were transferred to 96-well plates (2×10^5 cells/well) containing compound or vehicle control, with the final concentration of DMSO not to exceed 0.3% and incubated for 1 hour before addition of the activating anti-CD3 antibody, OKT3 (30 ng/mL). After 24 hours in culture, the cells were pulsed with [3H]thymidine (1 μCi/well) overnight and harvested the next day onto 96-well Packard GF/C filter plates using a Packard Cell Harvester (Packard Instruments, Meriden, Conn.). The filter plate was dried, the bottom of the plate sealed, 25 μL of Microscint 20 scintillation fluid added to each well, the top of the plate sealed with TopSeal-A, and the plate counted on a Packard TopCount. The data from the TopCount is transferred into Excel 5 (Microsoft, Redmond, Wash.) and formatted for EC50 determination using Prism software (GraphPad Software, San Diego, Calif.).

[4] = Cytotoxicity assay (Calcein-AM uptake); assay type: cell-based; conditions: human, T-cell lymphoblasts (PHA-expanded PBMC), overnight incubation, Calcein-AM viability

Compound	IC50 (CD45 [1])	IC50 (CD45 [2])	IC50 [3]	CC50 [4]
O=C1C=Cc2ccccc2C1=O [Example 1, [1,2]-Naphthoquinone]	3 µM	> 30 µM	7 µM	> 30 µM
CCOC1=CC(=O)C(=O)c2ccccc21 [Example 2, 4-Ethoxy-[1,2]naphthoquinone]	2 µM		> 30 µM	30 µM
COC1=CC(=O)C(=O)c2ccccc21 [Example 3, 4-Methoxy-[1,2]naphthoquinone]	1.2 µM	4.2 µM	> 30 µM	
C=CCOC1=CC(=O)C(=O)c2ccccc21 [Example 4, 4-Allyloxy-[1,2]naphthoquinone]	1.2 µM	4.9 µM	> 30 µM	> 30 µM
O=C1C=C(Cl)c2ccccc2C1=O [Example 5, 4-Chloro-[1,2]naphthoquinone]	10 µM	> 30 µM	> 30 µM	> 30 µM
O=C1C=C(Br)c2ccccc2C1=O [Example 6, 4-Bromo-[1,2]naphthoquinone]	8.7 µM	> 30 µM	22 µM	> 30 µM
Cn1cc(C2=CC(=O)C(=O)c3ccccc32)c2ccccc21 [Example 7, 4-(1-Methyl-1H-indol-3-yl)-[1,2]naphthoquinone]	5 µM	19 µM	1.5 µM	> 30 µM
O=C1C=C(c2c(-c3ccccc3)[nH]c3ccccc23)c2ccccc2C1=O [Example 8, 4-(2-Phenyl-1H-indol-3-yl)-[1,2]naphthoquinone]	2.9 µM	20 µM	2 µM	16 µM
O=C1C=C(c2ccccc2Cl)c2ccccc2C1=O [Example 9, 4-(2-Chloro-phenyl)-[1,2]naphthoquinone]	8 µM	> 30 µM	0.3 µM	124 µM
O=C1C=C(c2ccc(Br)cc2)c2ccccc2C1=O [Example 10, 4-(4-Bromo-phenyl)-[1,2]naphthoquinone]	7.7 µM	> 30 µM	0.11 µM	3 µM
O=C1C=C(c2ccccc2)c2ccccc2C1=O [Example 11, 4-Phenyl-[1,2]naphthoquinone]	5 µM	> 30 µM	0.15 µM	12 µM
O=C1C=C(c2cccc3ccccc23)c2ccccc2C1=O [Example 12, [1,1′]Binaphthalenyl-3,4-dione]	22.5 µM	> 30 µM	3.2 µM	> 30 µM
O=C1C=C(c2cc(Cl)cc(Cl)c2)c2ccccc2C1=O [Example 13, 4-(3,5-Dichloro-phenyl)-[1,2]naphthoquinone]	5.5 µM		0.3 µM	5.5 µM
O=C1C=C(c2cccc([N+](=O)[O-])c2)c2ccccc2C1=O [Example 14, 4-(3-Nitro-phenyl)-[1,2]naphthoquinone]	7.9 µM	> 30 µM	0.2 µM	4 µM
O=C1C=Cc2cc(C(=O)c3ccccc3)ccc2C1=O [Example 15, 6-Benzoyl-[1,2]naphthoquinone]	22 µM	> 30 µM	11 µM	> 30 µM
COC(=O)c1cccc2c1C=CC(=O)C2=O [Example 16, 5,6-Dioxo-5,6-dihydro-naphthalene-1-Carboxylic acid methyl ester]	11 µM	> 30 µM		> 30 µM
COC(=O)c1ccc2c(c1)C=CC(=O)C2=O [Example 17, 5,6-Dioxo-5,6-dihydro-naphthalene-2-Carboxylic acid methyl ester]	7 µM	> 30 µM	7 µM	> 30 µM
O=C1C=Cc2ccc(O)cc2C1=O [Example 18, 7-Hydroxy-[1,2]naphthoquinone]	4.9 µM		> 30 µM	> 30 µM
